This assay concerns the target CXCR3 (Macaca fascicularis, UniProt A0A2K5UV19). The experiment in a line: functional cellular assay measuring calcium flux in CXCR3 transfected cells (block of CXCR3/IP-10 interaction). Type of assay: cell-based, Cyno. Particulars: IP-10 induced intracellular calcium flux; Cyno-CHO cells stably expressing recombinant CXCR3 and G-alpha-16; IP-10 at EC80; read-out: IC50. A digest of the protocol: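 Inhibition of IP-10-induced calcium flux at 10 microM final compound, 15 min room-temperature preincubation, with IP-10 at EC80. Cells: CHO stably transfected with cynomolgus CXCR3 plus G-alpha-16, dye-loaded (Ca-4, 2 mM probenecid, HBSS/HEPES pH 7.4) 1 h at 37° C.; fluorescence ex 480/em 540 nm.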
A general note: Calcium flux is commonly read through the fluorescence of an indicator in the cells.

Each structure is given as a SMILES string.

Chain of CXCR3 (A0A2K5UV19 entry or part of it): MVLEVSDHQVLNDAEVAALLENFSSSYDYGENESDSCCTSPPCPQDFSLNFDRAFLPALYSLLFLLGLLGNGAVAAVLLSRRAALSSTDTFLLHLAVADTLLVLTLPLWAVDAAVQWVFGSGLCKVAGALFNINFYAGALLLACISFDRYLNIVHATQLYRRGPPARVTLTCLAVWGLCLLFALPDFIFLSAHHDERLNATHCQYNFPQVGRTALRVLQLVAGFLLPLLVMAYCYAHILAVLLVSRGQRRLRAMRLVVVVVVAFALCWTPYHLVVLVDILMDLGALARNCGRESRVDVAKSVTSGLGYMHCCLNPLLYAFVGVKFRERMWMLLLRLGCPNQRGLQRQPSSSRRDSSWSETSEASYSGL

For orientation: IC50 means the point on the concentration scale where inhibition reaches its midpoint. For `CC1CN(c2ccc(C(F)(F)F)cc2-c2cnc(S(C)(=O)=O)nc2)CCN1C(=O)Cn1c(=O)[nH]c2ccccc21` (stereo not shown) [1-[2-(2-methyl-4-{2-[2-(methylsulfonyl)pyrimidin-5-yl]-4-(trifluoromethyl)phenyl}piperazin-1-yl)-2-oxoethyl]-1,3-dihydro-2H-benzimidazol-2-one], the IC50 stood at 20 nM.

On to `Cc1cc(C)n(CC(=O)N2CCN(c3ccccc3-c3cnc(Oc4cccnc4)nc3)CC2)n1` [2-(3,5-Dimethyl-pyrazol-1-yl)-1-(4-{2-[2-(pyridin-3-yloxy)-pyrimidin-5-yl]-phenyl}-piperazin-1-yl)-ethanone], for which the IC50 is 56 nM.

Consider `CC1CN(c2ccc(F)cc2-c2cnc(N3CCC(S(C)(=O)=O)CC3)nc2)CCN1C(=O)Cn1c(=O)[nH]c2ccccc21` (stereo not shown) [1-{2-[4-(4-fluoro-2-{2-[4-(methylsulfonyl)piperidin-1-yl]pyrimidin-5-yl}phenyl)-2-methylpiperazin-1-yl]-2-oxoethyl}-1,3-dihydro-2H-benzimidazol-2-one], for which the IC50 was determined as 9 nM.

On to `Cc1cc(C)n(CC(=O)N2CCN(c3ccccc3-c3cnc(N4CCC5CCCCC5C4)nc3)CC2)n1` (stereo not shown) [2-(3,5-Dimethyl-pyrazol-1-yl)-1-(4-{2-[2-(octahydro-isoquinolin-2-yl)-pyrimidin-5-yl]-phenyl}-piperazin-1-yl)-ethanone], for which the IC50 worked out at 21 nM.

Take `COc1ncc(-c2ccccc2N2CCN(C(=O)Cn3c(=O)n(C)c4ccccc43)CC2)cn1` [1-(2-{4-[2-(2-Methoxy-pyrimidin-5-yl)-phenyl]-piperazin-1-yl}-2-oxo-ethyl)-3-methyl-1,3-dihydro-benzoimidazol-2-one]: the IC50 came to 11 nM.

Regarding `COc1cc(NC(=O)c2cc(F)ccc2N2CCN(C(=O)CN(C)C(=O)c3ncoc3C)[C@@H](C)C2)ccn1` [N-{2-[(2S)-4-{4-fluoro-2-[(2-methoxypyridin-4-yl)carbamoyl]phenyl}-2-methylpiperazin-1-yl]-2-oxoethyl}-N,5-dimethyl-1,3-oxazole-4-carboxamide], the IC50 was 11 nM.

With `CC1CN(c2ccccc2-c2cnc(N3CCC(S(C)(=O)=O)CC3)nc2)CCN1C(=O)Cn1cnc2cccnc21` (stereo not shown) [2-(3H-imidazo[4,5-b]pyridin-3-yl)-1-[2-methyl-4-(2-{2-[4-(methylsulfonyl)piperidin-1-yl]pyrimidin-5-yl}phenyl)piperazin-1-yl]ethanone], the IC50 was 14 nM.

For `CC1CN(c2ccc(C(F)(F)F)cc2-c2cnc(N3CCC(S(C)(=O)=O)CC3)nc2)CCN1C(=O)Cn1ccc2ccncc21` (stereo not shown) [1-{2-methyl-4-[2-{2-[4-(methylsulfonyl)piperidin-1-yl]pyrimidin-5-yl}-4-(trifluoromethyl)phenyl]piperazin-1-yl}-2-(1H-pyrrolo[2,3-c]pyridin-1-yl)ethanone], the IC50 came to 7 nM.

Regarding `Cc1cc(C)n(CC(=O)N2CCN(c3ccccc3-c3cnc(N4CCN(C)CC4)nc3)CC2)n1` [2-(3,5-Dimethyl-pyrazol-1-yl)-1-(4-{2-[2-(4-methyl-piperazin-1-yl)-pyrimidin-5-yl]-phenyl}-piperazin-1-yl)-ethanone], the IC50 came to 40 nM.

In the case of `COc1ncc(-c2ccccc2N2CCN(C(=O)Cn3cnc4cccnc43)CC2)cn1` [2-Imidazo[4,5-b]pyridin-3-yl-1-{4-[2-(2-methoxy-pyrimidin-5-yl)-phenyl]-piperazin-1-yl}-ethanone], the IC50 was determined as 15 nM.

Take `C[C@@H]1CN(c2ccc(F)cc2C(=O)Nc2nc3c(s2)CN(C)CC3)CCN1C(=O)Cn1cnc2cccnc21` [5-fluoro-2-[(3R)-4-(3H-imidazo[4,5-b]pyridin-3-ylacetyl)-3-methylpiperazin-1-yl]-N-(5-methyl-4,5,6,7-tetrahydro[1,3]thiazolo[5,4-c]pyridin-2-yl)benzamide]: the IC50 is 15 nM.

Take `Cc1cc(C)n(CC(=O)N2CCN(c3ccccc3-c3cnc(N4CCC(S(C)(=O)=O)CC4)nc3)CC2C)n1` (stereo not shown) [2-(3,5-dimethyl-1H-pyrazol-1-yl)-1-[2-methyl-4-(2-{2-[4-(methylsulfonyl)piperidin-1-yl]pyrimidin-5-yl}phenyl)piperazin-1-yl]ethanone]: the IC50 worked out at 9 nM.

Take `CN1CCN(c2ncc(-c3cc(F)ccc3N3CCN(C(=O)Cn4cnc5cccnc54)CC3)cn2)CC1` [1-(4-{4-fluoro-2-[2-(4-methylpiperazin-1-yl)pyrimidin-5-yl]phenyl}piperazin-1-yl)-2-(3H-imidazo[4,5-b]pyridin-3-yl)ethanone]: the IC50 came to 43 nM.

`N#Cc1ncc(-c2ccccc2N2CCN(C(=O)Cn3ccc4cccnc43)CC2)cn1` [5-{2-[4-(2-Pyrrolo[2,3-b]pyridin-1-yl-acetyl)-piperazin-1-yl]-phenyl}-pyrimidine-2-carbonitrile]: the IC50 is 13 nM.

With `CSc1ncc(-c2cc(C#N)ccc2N2CCN(C(=O)Cn3nc(C)cc3C)CC2)cn1` [4-{4-[2-(3,5-Dimethyl-pyrazol-1-yl)-acetyl]-piperazin-1-yl}-3-(2-methylsulfanyl-pyrimidin-5-yl)-benzonitrile], the IC50 is 36 nM.

In the case of `CC1CN(c2ccc(C(F)(F)F)cc2-c2cnc(S(C)(=O)=O)nc2)CCN1C(=O)CN1CCCCC1=O` (stereo not shown) [1-[2-(2-methyl-4-{2-[2-(methylsulfonyl)pyrimidin-5-yl]-4-(trifluoromethyl)phenyl}piperazin-1-yl)-2-oxoethyl]piperidin-2-one], the IC50 turned out to be 310 nM.

For the compound `Cc1cc(C)n(CC(=O)N2CCN(c3ccccc3-c3cnc(N4CCCOCC4)nc3)CC2)n1` [2-(3,5-Dimethyl-pyrazol-1-yl)-1-{4-[2-(2-[1,4]oxazepan-4-yl-pyrimidin-5-yl)-phenyl]-piperazin-1-yl}-ethanone], the IC50 stood at 11 nM.

In the case of `O=C(CN1CCCCC1=O)N1CCN(c2ccc(F)cc2-c2cnc(N3CCOCC3)nc2)CC1` [1-[2-(4-{4-fluoro-2-[2-(morpholin-4-yl)pyrimidin-5-yl]phenyl}piperazin-1-yl)-2-oxoethyl]piperidin-2-one], the IC50 was 30 nM.

With `O=C(Cn1ccc2cccnc21)N1CCN(c2ccccc2-c2cnc(N3CCOCC3)nc2)CC1` [1-{4-[2-(2-Morpholin-4-yl-pyrimidin-5-yl)-phenyl]-piperazin-1-yl}-2-pyrrolo[2,3-b]pyridin-1-yl-ethanone], the IC50 is 6 nM.

Turning to `CC1CN(c2ccc(C(F)(F)F)cc2-c2cnc(N3CCC(O)CC3)nc2)CCN1C(=O)Cn1c(=O)[nH]c2ccccc21` (stereo not shown) [1-[2-(4-{2-[2-(4-hydroxypiperidin-1-yl)pyrimidin-5-yl]-4-(trifluoromethyl)phenyl}-2-methylpiperazin-1-yl)-2-oxoethyl]-1,3-dihydro-2H-benzimidazol-2-one], the IC50 is 9 nM.

As for `COc1cc(NC(=O)c2cc(F)ccc2N2CCN(C(=O)CN(C)C(=O)C(C)C)[C@@H](C)C2)ccn1` [5-fluoro-N-(2-methoxypyridin-4-yl)-2-{(3S)-3-methyl-4-[N-methyl-N-(2-methylpropanoyl)glycyl]piperazin-1-yl}benzamide], the IC50 was determined as 11 nM.

With `CSc1ncc(-c2ccccc2N2CCN(C(=O)Cn3nc(C)cc3C)CC2)cn1` [2-(3,5-Dimethyl-pyrazol-1-yl)-1-{4-[2-(2-methylsulfanyl-pyrimidin-5-yl)-phenyl]-piperazin-1-yl}-ethanone], the IC50 turned out to be 10 nM.

Turning to `COc1ncc(-c2ccccc2N2CCN(C(=O)Cn3ccc4ccnc(Cl)c43)CC2)cn1` [2-(7-Chloro-pyrrolo[2,3-c]pyridin-1-yl)-1-{4-[2-(2-methoxy-pyrimidin-5-yl)-phenyl]-piperazin-1-yl}-ethanone], the IC50 amounted to 16 nM.

`COc1cc(NC(=O)c2cc(F)ccc2N2CCN(C(=O)CN(C)C(=O)C(C)C)[C@H](C)C2)ccn1` [5-fluoro-N-(2-methoxypyridin-4-yl)-2-{(3R)-3-methyl-4-[N-methyl-N-(2-methylpropanoyl)glycyl]piperazin-1-yl}benzamide]: the IC50 was found to be 9 nM.

As for `CS(=O)(=O)C1CCN(c2ncc(-c3cc(F)ccc3N3CCN(C(=O)Cn4ccc5cccnc54)CC3)cn2)CC1` [1-[4-(4-fluoro-2-{2-[4-(methylsulfonyl)piperidin-1-yl]pyrimidin-5-yl}phenyl)piperazin-1-yl]-2-(1H-pyrrolo[2,3-b]pyridin-1-yl)ethanone], the IC50 is 9 nM.

For the compound `CN1CCN(c2ncc(-c3ccccc3N3CCN(C(=O)Cn4ccc5cccnc54)CC3)cn2)CC1` [1-(4-{2-[2-(4-Methyl-piperazin-1-yl)-pyrimidin-5-yl]-phenyl}-piperazin-1-yl)-2-pyrrolo[2,3-b]pyridin-1-yl-ethanone], the IC50 turned out to be 11 nM.

Take `COc1ncc(-c2ccccc2N2CCN(C(=O)Cn3nc(C)c(Cl)c3C)CC2)cn1` [2-(4-Chloro-3,5-dimethyl-pyrazol-1-yl)-1-{4-[2-(2-methoxy-pyrimidin-5-yl)-phenyl]-piperazin-1-yl}-ethanone]: the IC50 worked out at 10 nM.

On to `O=C(Cn1cnc2cccnc21)N1CCN(c2ccc(F)cc2-c2cnc(N3CCOCC3)nc2)CC1` [1-(4-{4-fluoro-2-[2-(morpholin-4-yl)pyrimidin-5-yl]phenyl}piperazin-1-yl)-2-(3H-imidazo[4,5-b]pyridin-3-yl)ethanone], for which the IC50 turned out to be 24 nM.

Turning to `O=C(CN1Cc2ccccc2C1=O)N1CCN(c2ccc(F)cc2-c2cnc(N3CCCC3)nc2)CC1` [2-[2-(4-{4-fluoro-2-[2-(pyrrolidin-1-yl)pyrimidin-5-yl]phenyl}piperazin-1-yl)-2-oxoethyl]-2,3-dihydro-1H-isoindol-1-one], the IC50 is 15 nM.

As to `O=C(CNc1ccncc1)N1CCN(c2ccccc2-c2cnc(N3CCOCC3)nc2)CC1` [1-{4-[2-(2-Morpholin-4-yl-pyrimidin-5-yl)-phenyl]-piperazin-1-yl}-2-(pyridin-4-ylamino)-ethanone], the IC50 amounted to 27 nM.

With `O=C(Cn1c(=O)[nH]c2ccccc21)N1CCN(c2ccccc2-c2ccccc2)CC1` [1-[2-(4-Biphenyl-2-yl-piperazin-1-yl)-2-oxo-ethyl]-1,3-dihydro-benzoimidazol-2-one], the IC50 worked out at 140 nM.

For the origin of these results see patent publication US8450317B2, “CXCR3 receptor antagonists” (Boehringer Ingelheim International GmbH, priority 2009, dated 2013).
